{
  "source": "patent US20200179369A1",
  "about": "“TREATMENT OF DIABETIC NEPHROPATHY” (TAKEDA GMBH, priority 2015, published 2020)",
  "key": {"[1]": {"system": "diet-induced obese (DIO) mice", "assay": "Body weight, fat and lean mass, 4 weeks treatment in diet-induced obese (DIO) mice", "format": "in vivo", "conditions": "for body weight change from pretreatment (Day 0): mean ±S.D.", "protocol": "Male C57BL/6J mice were obtained from CLEA Japan, Inc. The mice were fed High fat diet D12451 (Research diets, Inc) from 5 week to 54-week old and water ad libitum.\nAll mice were housed individually in animal cages and used for the study after 2 weeks of acclimation period. Animal groups (n=7) were treated with either vehicle (0.5 w/v % methylcellulose, p.o.) or Compound A (1 mg/kg or 3 mg/kg, p.o. suspension in 0.5w/v % methylcellulose solution) in the evening once a day for 4 weeks from 50 weeks of age. Body weight was measured 2 or 3 times per week. Regarding body composition fast mass and lean mass were measured.\nBody composition (fat mass and lean mass) was measured by Echo-MRI-900 (ALOKA Japan).\nAll data are presented as mean ±S.D. For evaluation of the effects of Compound A, statistical significances between vehicle (p.o.) and Compound A treated groups were analysed with one-tailed Williams' test or Shirley-Williams test when the variances among the groups were homogeneous or heterogeneous, respectively. The p-values less than 0.025 were considered statistically significant in one-tailed Williams' test or Shirley-Williams test. Body weight change from pretreatment (Day 0) was calculated using the following formula: [(BW−BW at Day 0)/BW at Day 0]×100."}, "fibronectin mRNA": {"system": "fibronectin mRNA", "assay": "TGF-β-induced mRNA expression of fibronectin in human mesangial cells", "format": "cell-based", "conditions": "in the presence of forskolin 1 μM, TGF-β 3 ng/mL, 24 h", "protocol": "(§1) Human mesangial cells were purchased from DS Pharma Biomedical (US). Compound A was obtained from Takeda GmbH, Konstanz, Germany. Forskolin and dimethyl sulfoxide (DMSO) were purchased from Wako Pure Chemical Industries, Ltd (Japan). Recombinant human TGF-β was purchased from R&D systems (USA).\n(§2) On day 0, human mesangial cells were seeded at a cell density of 2×10^5 cells/well in CSC complete medium (Cell Systems, USA) on type 1 collagen-coated 24-well plate (AGC TECHNO GLASS Co. Ltd., Japan) in an atmosphere of 95% air and 5% CO2 at 37° C. On day 1, the cells were serum starved with CMC medium which is not containing serum and growth factors. On day 2, Compound A at final concentrations of 0.001, 0.01, 0.1, 1 and 10 μM or DMSO (control) was added to the culture medium. […] For the measurement of mRNA levels of type 1 collagen α1 chain and fibronectin, total RNA isolated at 24 hours after forskolin/TGF-β stimulation was used. mRNA expression levels were measured by quantitative real-time RT-PCR methods with TaqMan gene expression master mix and ABI PRISM 9700 (Life Technologies, USA) with target mRNA specific primer and probe sets [Human connective tissue growth factor (Hs1026927_g1); Human plasminogen activator inhibitor-1 (Hs00167155_m1); Human type 1 collagenal chain (Hs00164004_m1); Human fibronectin (HS00365052_m1); Humanglyceraldehyde 3-phosphate dehydrogenase (HS2758991_g1)]. […]"}, "female db/db mice": {"system": "female db/db mice", "assay": "HbA1c, 4 weeks treatment in female db/db mice", "format": "in vivo", "conditions": "28 days, vehicle 9.06%", "protocol": "Female db/db mice were purchased from Taconic (Lille Skensved, Denmark) at 5-6 weeks of age and were maintained under standard conditions (5 animals/cage; 12 h light-dark cycle; room temperature of 22±2° C.; relative humidity of 60±15%). All mice had free access to water and standard chow (Provimi Kliba, Kaiseraugst, Switzerland). Four days upon arrival animals were randomized based on body weight and levels of glycated hemoglobin 1c (HbA1c). At 7 weeks of age, animals were treated daily by oral gavage with vehicle (4% methylcellulose) or with Compound A (composed in aqueous 4% methylcellulose) using doses of 1, 3 and 10 mg/kg s.i.d. (doses related to free base). The required dose was applied in a volume of 10 ml/kg body weight. Each dose group consisted of 10 animals. At the end of the treatment period plasma samples were isolated for determination of HbA1c levels. All experimental procedures were conducted according to the German Animal Protection Law.\nHbA1c was analyzed from tail-tip-blood (HbA1c determination before treatment) as well as from blood collected from the retro-orbital venous plexus (HbA1c determination after 4 weeks treatment) using the Hemoglobin A1c Test (Siemens, Bad Nauheim, Germany).\nValues are presented as means ±SEM. Statistical differences were determined using one-way-ANOVA followed by a post-hoc analysis with Dunnet's correction (GraphPad Prism).\nDefinition of significance: n.s.=not significant (p>0.05) • *, **, ***=p<0.05, <0.01, <0.001"}, "[2]": {"system": "plasminogen activator inhibitor-1 (PAI-1) mRNA", "assay": "TGF-β-induced mRNA expression of plasminogen activator inhibitor-1 (PAI-1) in human mesangial cells", "format": "cell-based", "conditions": "0.001-10 μM with forskolin 1 μM and TGF-β 3 ng/mL, 6 h", "protocol": "as §1, §2"}},
  "data": [
    {"smiles": "CCOc1cc2c(cc1OC)C(c1ccc(=O)n(C)c1)=N[C@@H]1CC[C@@H](O)C[C@H]21", "note": "[Compound A, 5-((2R,4aR,10bR)-9-Ethoxy-2-hydroxy-8-methoxy-1,2,3,4,4a,10b-hexahydro-phenanthridin-6-yl)1-methyl-1H-pyridin-2-one]", "values": [
      {"measurement": "body weight reduction corrected with vehicle (p.o.)-treated body weight change", "setting": "[1]; 1 mg/kg p.o. once a day", "result": "−8.7±3.5", "unit": "%"},
      {"measurement": "body weight change from pretreatment (Day 0)", "setting": "[1]; 1 mg/kg p.o. once a day", "result": "−4.9±3.5", "unit": "%"},
      {"measurement": "body weight change from pretreatment (Day 0)", "setting": "[1]; 3 mg/kg p.o. once a day", "result": "−17.2±4.0", "unit": "%"},
      {"measurement": "effect on fat mass", "setting": "[1]; 1 and 3 mg/kg p.o. once a day", "result": "dose dependently and significantly decreased fat mass"},
      {"measurement": "effect on lean mass", "setting": "[1]; 1 and 3 mg/kg p.o. once a day", "result": "without affecting lean mass"},
      {"measurement": "concentration at which the inhibitory effect on mRNA expression of fibronectin was further enhanced", "setting": "fibronectin mRNA", "result": "≥ 0.1", "unit": "µM"},
      {"measurement": "mean HbA1c", "setting": "female db/db mice; 1 mg/kg oral s.i.d.", "result": 7.27, "unit": "%"},
      {"measurement": "mean HbA1c", "setting": "female db/db mice; 3 mg/kg oral s.i.d.", "result": 7.06, "unit": "%"},
      {"measurement": "mean HbA1c", "setting": "female db/db mice; 10 mg/kg oral s.i.d.", "result": 6.16, "unit": "%"},
      {"measurement": "effect on TGF-β-induced mRNA expression of PAI-1", "setting": "[2]", "result": "further suppressed by the treatment with Compound A in a concentration-dependent manner"}
    ]}
  ]
}
